For two compounds, Kd results are on record in publication PMC7385938 (Cell Stress & Chaperones, 2020).

This assay deals with HSPA5-FL (Homo sapiens, UniProt P11021). In words: ITC, liposomes titrated into protein. The assay is classed as binding. A general note: ITC needs no label: the signal is the heat of the interaction.
Chain of HSPA5-FL (P11021 25-654): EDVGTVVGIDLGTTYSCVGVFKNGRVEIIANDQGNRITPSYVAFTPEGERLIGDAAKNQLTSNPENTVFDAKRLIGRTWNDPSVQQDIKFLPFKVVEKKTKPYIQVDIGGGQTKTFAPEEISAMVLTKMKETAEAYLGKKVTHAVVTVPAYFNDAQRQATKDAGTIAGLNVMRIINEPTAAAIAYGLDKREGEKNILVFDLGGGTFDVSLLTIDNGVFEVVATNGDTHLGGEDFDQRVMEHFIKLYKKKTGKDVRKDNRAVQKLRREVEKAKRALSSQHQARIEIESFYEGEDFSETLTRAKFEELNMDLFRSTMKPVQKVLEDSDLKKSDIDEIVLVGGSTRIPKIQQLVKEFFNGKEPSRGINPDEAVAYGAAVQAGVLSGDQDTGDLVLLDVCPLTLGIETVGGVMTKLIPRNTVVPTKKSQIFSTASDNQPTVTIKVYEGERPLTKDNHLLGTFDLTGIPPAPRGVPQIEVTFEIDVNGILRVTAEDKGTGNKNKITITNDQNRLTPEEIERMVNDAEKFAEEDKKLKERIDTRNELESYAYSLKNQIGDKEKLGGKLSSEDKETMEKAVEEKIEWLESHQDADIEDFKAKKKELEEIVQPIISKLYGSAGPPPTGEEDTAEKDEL

The term Kd denotes the equilibrium constant for the complex coming apart. High values mean weaker binding, low ones tighter binding. In turn, `CCCCCCCCCCCCCC(=O)OC[C@H](COP(=O)(O)OCC(O)COP(=O)(O)OC[C@@H](COC(=O)CCCCCCCCCCCCC)OC(=O)CCCCCCCCCCCCC)OC(=O)CCCCCCCCCCCCC` (some centres unmarked) [CL, 1′,3′-bis[1,2-dimyristoyl-sn-glycero-3-phospho]-glycerol] showed an equilibrium dissociation constant (Kd) of 1600 ± 500 nM.

The compound `CCCCCCCC/C=C\CCCCCCCC(=O)O[C@H](COC(=O)CCCCCCCCCCCCCCC)COP(=O)(O)OC[C@H](N)C(=O)O` [POPS] gave a Kd of 3500 ± 800 nM.
